Source: patent publication US20110190365A1, “Insecticidal 4-phenyl-1H-pyrazoles” (Bayer Crop Science AG, priority 2008, published 2011)

assay: log P by HPLC on a reversed-phase column (C18), EEC Directive 79/831 Annex V.A8; type: physicochemical; settings: HCOOH
Experimental: The stated log P values were determined in accordance with EEC Directive 79/831 Annex V.A8 by HPLC (High Performance Liquid Chromatography) using a reversed-phase column (C18).

| Structure (SMILES) | log P (HCOOH) |
| --- | --- |
| Cc1cc(-n2nc(C(F)(F)F)c(-c3ccc(Cl)cc3)c2N)ccc1C(=O)NCC(F)(F)C(F)F [I-A-Q2-302] | I-A-Q2-302: log P (HCOOH): 3.61 |
| Cc1cc(-n2nc(C(F)(F)F)c(-c3ccc(Br)cc3)c2N)ccc1C(=O)NCC(F)(F)C(F)F [I-A-Q2-303] | I-A-Q2-303: log P (HCOOH): 3.70 |
| Cc1cc(-n2nc(C(F)(F)F)c(-c3ccc(Cl)c(Cl)c3)c2N)ccc1C(=O)NCC(F)(F)C(F)F [I-A-Q2-304] | I-A-Q2-304: log P (HCOOH): 4.00 |
| Cc1cc(-n2nc(C(F)(F)F)c(-c3ccc(Cl)cc3Cl)c2N)ccc1C(=O)NCC(F)(F)C(F)F [I-A-Q2-305] | I-A-Q2-305: log P (HCOOH): 3.75 |
| Cc1cc(-n2nc(C(F)(F)F)c(-c3ccc(C#N)cc3)c2N)ccc1C(=O)NCC(F)(F)C(F)F [I-A-Q2-306] | I-A-Q2-306: log P (HCOOH): 3.24 |
| Cc1cc(-n2nc(C(F)(F)F)c(-c3c(F)cc(F)cc3F)c2N)ccc1C(=O)NCC(F)(F)C(F)F [I-A-Q2-307] | I-A-Q2-307: log P (HCOOH): 3.27 |
| Cc1cc(-n2nc(C(F)(F)F)c(-c3ccccc3Cl)c2N)ccc1C(=O)NCC(F)(F)C(F)F [I-A-Q2-308] | I-A-Q2-308: log P (HCOOH): 3.23 |
| Cc1cc(-n2nc(C(F)(F)F)c(-c3ccc(F)c(Cl)c3)c2N)ccc1C(=O)NCC(F)(F)C(F)F [I-A-Q2-309] | I-A-Q2-309: log P (HCOOH): 3.65 |
| Cc1cc(-n2nc(C(F)(F)F)c(-c3ccc(Cl)c(F)c3)c2N)ccc1C(=O)NCC(F)(F)C(F)F [I-A-Q2-310] | I-A-Q2-310: log P (HCOOH): 3.70 |
| Cc1cc(-n2nc(C(F)(F)F)c(-c3cccc(F)c3)c2N)ccc1C(=O)NCC(F)(F)C(F)F [I-A-Q2-311] | I-A-Q2-311: log P (HCOOH): 3.27 |
| Cc1cc(-n2nc(C(F)(F)F)c(-c3ccc(F)c(F)c3)c2N)ccc1C(=O)NCC(F)(F)C(F)F [I-A-Q2-312] | I-A-Q2-312: log P (HCOOH): 3.42 |
| Cc1cc(-n2nc(C(F)(F)F)c(-c3ccc(I)cc3)c2N)ccc1C(=O)NCC(F)(F)C(F)F [I-A-Q2-313] | I-A-Q2-313: log P (HCOOH): 3.85 |
| Cc1cc(-n2nc(C(F)(F)F)c(-c3cccc(Br)c3)c2N)ccc1C(=O)NCC(F)(F)C(F)F [I-A-Q2-314] | I-A-Q2-314: log P (HCOOH): 3.65 |
| Cc1cc(-n2nc(C(F)(F)F)c(-c3cc(F)cc(F)c3)c2N)ccc1C(=O)NCC(F)(F)C(F)F [I-A-Q2-315] | I-A-Q2-315: log P (HCOOH): 3.37 |
| Cc1cc(-n2nc(C(F)(F)F)c(-c3cc(F)c(F)c(F)c3)c2N)ccc1C(=O)NCC(F)(F)C(F)F [I-A-Q2-316] | I-A-Q2-316: log P (HCOOH): 3.65 |
| Cc1cc(-n2nc(C(F)(F)F)c(-c3ccccc3C)c2N)ccc1C(=O)NCC(F)(F)C(F)F [I-A-Q2-317] | I-A-Q2-317: log P (HCOOH): 3.32 |
| Cc1cc(-n2nc(C(F)(F)F)c(-c3cc(C(F)(F)F)cc(C(F)(F)F)c3)c2N)ccc1C(=O)NCC(F)(F)C(F)F [I-A-Q2-318] | I-A-Q2-318: log P (HCOOH): 4.23 |
| Cc1cc(-n2nc(C(F)F)c(-c3ccc(F)cc3F)c2N)ccc1C(=O)NCC(F)(F)C(F)F [I-A-Q2-319] | I-A-Q2-319: log P (HCOOH): 2.80 |
| Cc1cc(-n2nc(C(F)F)c(-c3ccc(Cl)cc3)c2N)ccc1C(=O)NCC(F)(F)C(F)F [I-A-Q2-320] | I-A-Q2-320: log P (HCOOH): 3.23 |

| Structure (SMILES) | log P (HCOOH) |
| --- | --- |
| Cc1cc(-n2nc(C(F)(F)C(F)(F)F)c(-c3ccc(Cl)cc3)c2N)ccc1C(=O)NCC(F)(F)C(F)F [I-A-Q2-321] | I-A-Q2-321: log P (HCOOH): 4.00 |
| Cc1cc(-n2nc(C(F)(F)Cl)c(-c3cc(Cl)cc(C(F)(F)F)c3)c2N)ccc1C(=O)NCC(F)(F)C(F)F [I-A-Q2-322] | I-A-Q2-322: log P (HCOOH): 4.34 |
| Cc1cc(-n2nc(C)c(-c3ccc(Cl)c(Cl)c3)c2N)ccc1C(=O)NCC(F)(F)C(F)F [I-A-Q2-323] | I-A-Q2-323: log P (HCOOH): 4.32 |
| COc1ccc(-c2c(C)nn(-c3ccc(C(=O)NCC(F)(F)C(F)F)c(C)c3)c2N)cc1 [I-A-Q2-324] | I-A-Q2-324: log P (HCOOH): 2.30 |
| Cc1cc(-n2nc(C)c(-c3ccc(Cl)cc3)c2N)ccc1C(=O)NCC(F)(F)C(F)F [I-A-Q2-325] | I-A-Q2-325: log P (HCOOH): 2.85 |
| Cc1cc(-n2nc(C)c(-c3ccc(F)cc3)c2N)ccc1C(=O)NCC(F)(F)C(F)F [I-A-Q2-326] | I-A-Q2-326: log P (HCOOH): 2.51 |
| Cc1cc(-n2nc(C)c(-c3ccc(F)cc3Cl)c2N)ccc1C(=O)NCC(F)(F)C(F)F [I-A-Q2-327] | I-A-Q2-327: log P (HCOOH): 2.73 |
| Cc1cc(-n2nc(C)c(-c3c(F)cc(F)cc3F)c2N)ccc1C(=O)NCC(F)(F)C(F)F [I-A-Q2-328] | I-A-Q2-328: log P (HCOOH): 2.48 |
| Cc1cc(-n2nc(C)c(-c3ccc(F)cc3F)c2N)ccc1C(=O)NCC(F)(F)C(F)F [I-A-Q2-329] | I-A-Q2-329: log P (HCOOH): 2.59 |
| Cc1cc(-n2nc(C)c(-c3ccc(Cl)cc3)c2N)ccc1C(=O)NCC(F)(F)C(F)F [I-A-Q2-330] | I-A-Q2-330: log P (HCOOH): 3.12 |
| Cc1cc(-n2nc(C)c(-c3cccc(Cl)c3)c2N)ccc1C(=O)NCC(F)(F)C(F)F [I-A-Q2-331] | I-A-Q2-331: log P (HCOOH): 2.85 |
| Cc1cc(-n2nc(C)c(-c3cc(F)ccc3F)c2N)ccc1C(=O)NCC(F)(F)C(F)F [I-A-Q2-332] | I-A-Q2-332: log P (HCOOH): 2.59 |
| Cc1cc(-n2nc(C)c(-c3ccccc3Cl)c2N)ccc1C(=O)NCC(F)(F)C(F)F [I-A-Q2-333] | I-A-Q2-333: log P (HCOOH): 2.59 |
| Cc1cc(-n2nc(C)c(-c3c(F)cccc3Cl)c2N)ccc1C(=O)NCC(F)(F)C(F)F [I-A-Q2-334] | I-A-Q2-334: log P (HCOOH): 2.59 |
| Cc1cc(-n2nc(C)c(-c3cc(Cl)ccc3Cl)c2N)ccc1C(=O)NCC(F)(F)C(F)F [I-A-Q2-335] | I-A-Q2-335: log P (HCOOH): 3.04 |
| Cc1cc(-n2nc(C)c(-c3c(Cl)cccc3Cl)c2N)ccc1C(=O)NCC(F)(F)C(F)F [I-A-Q2-336] | I-A-Q2-336: log P (HCOOH): 2.76 |
| Cc1cc(-n2nc(-c3ccccc3)c(-c3ccc(Cl)cc3)c2N)ccc1C(=O)NCC(F)(F)C(F)F [I-A-Q2-337] | I-A-Q2-337: log P (HCOOH): 3.80 |
| Cc1cc(-n2nc(C(C)C)c(-c3ccc(Cl)cc3)c2N)ccc1C(=O)NCC(F)(F)C(F)F [I-A-Q2-338] | I-A-Q2-338: log P (HCOOH): 3.65 |
| CCc1nn(-c2ccc(C(=O)NCC(F)(F)C(F)F)c(C)c2)c(N)c1-c1ccc(Cl)cc1 [I-A-Q2-339] | I-A-Q2-339: log P (HCOOH): 3.27 |

| Structure (SMILES) | log P (HCOOH) |
| --- | --- |
| CCCc1nn(-c2ccc(C(=O)NCC(F)(F)C(F)F)c(C)c2)c(N)c1-c1ccc(Cl)cc1 [I-A-Q2-340] | I-A-Q2-340: log P (HCOOH): 3.56 |
| Cc1cc(-n2nc(C3CC3)c(-c3ccc(Cl)cc3)c2N)ccc1C(=O)NCC(F)(F)C(F)F [I-A-Q2-341] | I-A-Q2-341: log P (HCOOH): 3.46 |
| Cc1cc(-n2nc(CC(C)C)c(-c3ccc(Cl)cc3)c2N)ccc1C(=O)NCC(F)(F)C(F)F [I-A-Q2-342] | I-A-Q2-342: log P (HCOOH): 3.85 |
| Cc1cc(-n2nc(C(F)(F)C(F)(F)F)c(-c3cc(C(F)(F)F)cc(C(F)(F)F)c3)c2N)ccc1C(=O)NCC(F)(F)C(F)F [I-A-Q2-343] | I-A-Q2-343: log P (HCOOH): 4.57 |
| Cc1cc(-n2nc(C(F)(F)F)c(-c3cc(F)cc(Cl)c3)c2N)ccc1C(=O)NCc1ccccn1 [I-A-Q2-344] | I-A-Q2-344: log P (HCOOH): 2.84 |
| Cc1cc(-n2nc(C(F)(F)F)c(-c3ccc(Cl)cc3)c2N)ccc1C(=O)NCc1ccccn1 [I-A-Q2-345] | I-A-Q2-345: log P (HCOOH): 2.69 |
| Cc1cc(-n2nc(C(F)(F)F)c(-c3ccc(Br)cc3)c2N)ccc1C(=O)NCc1ccccn1 [I-A-Q2-346] | I-A-Q2-346: log P (HCOOH): 2.80 |
| Cc1cc(-n2nc(C(F)(F)F)c(-c3ccc(Cl)c(Cl)c3)c2N)ccc1C(=O)NCc1ccccn1 [I-A-Q2-347] | I-A-Q2-347: log P (HCOOH): 3.11 |
| Cc1cc(-n2nc(C(F)(F)F)c(-c3ccc(Cl)cc3Cl)c2N)ccc1C(=O)NCc1ccccn1 [I-A-Q2-348] | I-A-Q2-348: log P (HCOOH): 2.84 |
| Cc1cc(-n2nc(C(F)(F)F)c(-c3ccc(C#N)cc3)c2N)ccc1C(=O)NCc1ccccn1 [I-A-Q2-349] | I-A-Q2-349: log P (HCOOH): 2.04 |
| Cc1cc(-n2nc(C(F)(F)F)c(-c3c(F)cc(F)cc3F)c2N)ccc1C(=O)NCc1ccccn1 [I-A-Q2-350] | I-A-Q2-350: log P (HCOOH): 2.34 |
| Cc1cc(-n2nc(C(F)(F)F)c(-c3ccccc3Cl)c2N)ccc1C(=O)NCc1ccccn1 [I-A-Q2-351] | I-A-Q2-351: log P (HCOOH): 2.27 |
| Cc1cc(-n2nc(C(F)(F)F)c(-c3ccc(F)c(Cl)c3)c2N)ccc1C(=O)NCc1ccccn1 [I-A-Q2-352] | I-A-Q2-352: log P (HCOOH): 2.76 |
| Cc1cc(-n2nc(C(F)(F)F)c(-c3ccc(Cl)c(F)c3)c2N)ccc1C(=O)NCc1ccccn1 [I-A-Q2-353] | I-A-Q2-353: log P (HCOOH): 2.84 |
| Cc1cc(-n2nc(C(F)(F)F)c(-c3cccc(F)c3)c2N)ccc1C(=O)NCc1ccccn1 [I-A-Q2-354] | I-A-Q2-354: log P (HCOOH): 2.31 |
| Cc1cc(-n2nc(C(F)(F)F)c(-c3ccc(F)c(F)c3)c2N)ccc1C(=O)NCc1ccccn1 [I-A-Q2-355] | I-A-Q2-355: log P (HCOOH): 2.50 |
| Cc1cc(-n2nc(C(F)(F)F)c(-c3ccc(I)cc3)c2N)ccc1C(=O)NCc1ccccn1 [I-A-Q2-356] | I-A-Q2-356: log P (HCOOH): 2.93 |
| Cc1cc(-n2nc(C(F)(F)F)c(-c3cccc(Br)c3)c2N)ccc1C(=O)NCc1ccccn1 [I-A-Q2-357] | I-A-Q2-357: log P (HCOOH): 2.72 |
